In brackets after ≈: the same amount, converted by molar mass.
Key:
[1] = test system: Mycobacterium tuberculosis; assay: Antitubercular activity against Mycobacterium tuberculosis H37Rv measured after 1 week by microplate alamar blue assay; type: functional; conditions: 168 h
HEK-293T = assay: Cytotoxicity against HEK293T cells after 48 hrs by MTT assay; type: cell-based; conditions: human
[2] = Protective index, ratio of MNTD50 for HEK293T cells to MIC for Mycobacterium tuberculosis H37Rv

SMILES | MIC [1] [µg/mL] | MNTD50 (HEK-293T) [µg/mL] | Ratio [2]
ClC1=C(c2cn(Cc3ccccc3)nn2)CCc2nc(-c3cccs3)ccc21 | 1.56 (≈ 3.85 µM) | 112 | 71.7
FC(F)(F)c1ccc(Cn2cc(C3=C(Cl)c4ccc(-c5cccs5)nc4CC3)nn2)cc1 | 6.25 (≈ 13.2 µM) | 86 | 13.76
COc1cc(Cn2cc(C3=C(Cl)c4ccc(-c5cccs5)nc4CC3)nn2)cc(OC)c1OC | 12.5 (≈ 25.3 µM) | 74 | 5.92
ClC1=C(c2cn(Cc3cccc(Br)c3)nn2)CCc2nc(-c3cccs3)ccc21 | 25 (≈ 51.7 µM) | – | –
ClC1=C(c2cn(Cc3ccc(Cl)c(Cl)c3)nn2)CCc2nc(-c3cccs3)ccc21 | 25 (≈ 52.8 µM) | – | –
O=C(O)c1cn(C2CC2)c2cc(N3CCNCC3)c(F)cc2c1=O [CIPROFLOXACIN] | 1.56 (≈ 4.71 µM) | – | –
Fc1cc(Br)ccc1Cn1cc(C2=C(Cl)c3ccc(-c4cccs4)nc3CC2)nn1 | 25 (≈ 49.8 µM) | – | –
N#CC1=C(Cl)c2ccc(-c3cccs3)nc2CC1 | 25 (≈ 91.7 µM) | – | –
Fc1ccc(Cn2cc(C3=C(Cl)c4ccc(-c5cccs5)nc4CC3)nn2)cc1 | 25 (≈ 59.1 µM) | – | –
Cc1cc(C)c(Cn2cc(C3=C(Cl)c4ccc(-c5cccs5)nc4CC3)nn2)c(C)c1 | 25 (≈ 55.9 µM) | – | –
O=[N+]([O-])c1ccc(Cn2cc(C3=C(Cl)c4ccc(-c5cccs5)nc4CC3)nn2)cc1 | 12.5 (≈ 27.8 µM) | 69 | 5.52
ClC1=C(c2cn(Cc3ccc(Br)cc3)nn2)CCc2nc(-c3cccs3)ccc21 | 3.12 (≈ 6.45 µM) | 88 | 28.02
NNC(=O)c1ccncc1 [ISONIAZID] | 0.1 (≈ 0.729 µM) | 32 | –
COc1cccc(Cn2cc(C3=C(Cl)c4ccc(-c5cccs5)nc4CC3)nn2)c1 | 3.12 (≈ 7.17 µM) | 98 | 31.4
Cc1ccc(Cn2cc(C3=C(Cl)c4ccc(-c5cccs5)nc4CC3)nn2)cc1 | 25 (≈ 59.7 µM) | – | –
CC[C@@H](CO)NCCN[C@@H](CC)CO [ETHAMBUTOL] | 3.13 (≈ 15.3 µM) | – | –
COc1ccc(Cn2cc(C3=C(Cl)c4ccc(-c5cccs5)nc4CC3)nn2)cc1 | 25 (≈ 57.5 µM) | – | –
CCc1ccc(Cn2cc(C3=C(Cl)c4ccc(-c5cccs5)nc4CC3)nn2)cc1 | 25 (≈ 57.7 µM) | – | –
CO[C@H]1/C=C/O[C@@]2(C)Oc3c(C)c(O)c4c(O)c(c(/C=N/N5CCN(C)CC5)c(O)c4c3C2=O)NC(=O)/C(C)=C\C=C\[C@H](C)[C@H](O)[C@@H](C)[C@@H](O)[C@@H](C)[C@H](OC(C)=O)[C@@H]1C [RIFAMPIN] | 0.2 (≈ 0.243 µM) | – | –
Fc1ccc(Cn2cc(C3=C(Cl)c4ccc(-c5cccs5)nc4CC3)nn2)c(Cl)c1 | 25 (≈ 54.7 µM) | – | –

From ChEMBL document CHEMBL4330141, “Synthesis and evaluation of novel substituted 1,2,3-triazolyldihydroquinolines as promising antitubercular agents” (Bioorg Med Chem Lett, 2019)
